{"source": "patent US8030443B2", "about": "“Squamous cell carcinoma antigen-derived peptide binding to HLA-A24 molecule” (Kurume University, priority 2005, dated 2011)", "system": "peptide-specific IgG in sera of cancer patients and healthy donors", "assay": "Measurement of anti-peptide IgG in plasma by LUMINEX multiplexed flow cytometric assay", "format": "binding, human", "method": "The levels of anti-peptide immunoglobulin G (IgG) were measured by the LUMINEX™ system (multiplexed flow cytometric assay) as previously reported (Komatsu N, Shichijo S, Nakagawa M, Itoh K. New multiplexed flow cytometric assay to measure anti-peptide antibody: a novel tool for monitoring immune responses to peptides used for immunization. Scand J Clin Lab Invest 2004; 64:1-11). In brief, plasma was incubated with 25 μl of peptide-coupled color-coded beads for 2 hr at room temperature on a plate shaker. After incubation, the mixture was washed with a vacuum manifold apparatus and incubated with 100 μl of biotinylated goat anti-human IgG (γ chain-specific)(BA-3080, Vector Laboratories, Burlingame, Calif., USA) for 1 h at room temperature. The plate was then washed, followed by the addition of 100 μl of streptavidin-PE (S-866, Molecular Probes, Eugene, Oreg., USA) into wells, and was incubated for 30 min at room temperature on a plate shaker. The bound beads were washed three times followed by the addition of 100 μl of Tween-PBS into each well. Fifty μl of sample was detected using the LUMINEX™ system (multiplexed flow cytometric assay). To confirm the specificity of IgG to a SCCA peptide, sample plasma was cultured in plates coated with a corresponding SCCA peptide, or with an irrelevant SCCA peptide. After the operation was repeated three times, the levels of the corresponding SCCA peptide-specific IgG in the resulting supernatant were determined by the LUMINEX™ system (multiplexed flow cytometric assay).\nThese 9 SCCA-derived peptides were screened based on their ability to be recognized by IgG in cancer patients. Peptide-specific IgG was measured by a multiplexed flow cytometric assay (LUMINEX™ (multiplexed flow cytometric assay)). The plasma samples were derived from 35 uterine cervical SCC patients, 10 breast adenocarcinoma patients, 10 pancreatic adenocarcinoma patients, 10 gastric adenocarcinoma, and 6 colon adenocarcinoma patients. The level of fluorescence intensity was judged to be significant when exceeded 100 at an 1/100 dilution."}
{"sequence": "AYELKIANKL (SCCA 98-107 peptide) [SCCA-derived peptide, position 98-107]", "values": [{"measurement": "Total: healthy donors with significant peptide-reactive IgG / donors tested", "setting": "10 healthy donors, significant when fluorescence intensity exceeded 100 at 1/100 dilution", "value": "1/10"}, {"measurement": "Total: cancer patients with significant peptide-reactive IgG / patients tested", "setting": "71 cancer patients, significant when fluorescence intensity exceeded 100 at 1/100 dilution", "value": "12/71"}, {"measurement": "Fluorescence intesity", "setting": "serum of Breast Ca. patient #36, 1:100 dilution", "value": 44}, {"measurement": "Fluorescence intesity", "setting": "serum of Breast Ca. patient #37, 1:100 dilution", "value": 18}, {"measurement": "Fluorescence intesity", "setting": "serum of Breast Ca. patient #38, 1:100 dilution", "value": 12}, {"measurement": "Fluorescence intesity", "setting": "serum of Breast Ca. patient #39, 1:100 dilution", "value": 20}, {"measurement": "Fluorescence intesity", "setting": "serum of Breast Ca. patient #40, 1:100 dilution", "value": 10}, {"measurement": "Fluorescence intesity", "setting": "serum of Breast Ca. patient #41, 1:100 dilution", "value": 214}, {"measurement": "Fluorescence intesity", "setting": "serum of Breast Ca. patient #42, 1:100 dilution", "value": 12}, {"measurement": "Fluorescence intesity", "setting": "serum of Breast Ca. patient #43, 1:100 dilution", "value": 12}, {"measurement": "Fluorescence intesity", "setting": "serum of Breast Ca. patient #44, 1:100 dilution", "value": 0}, {"measurement": "Fluorescence intesity", "setting": "serum of Breast Ca. patient #45, 1:100 dilution", "value": 18}, {"measurement": "Fluorescence intesity", "setting": "serum of Colon Ca. patient #66, 1:100 dilution", "value": 0}, {"measurement": "Fluorescence intesity", "setting": "serum of Colon Ca. patient #67, 1:100 dilution", "value": 0}, {"measurement": "Fluorescence intesity", "setting": "serum of Colon Ca. patient #68, 1:100 dilution", "value": 0}, {"measurement": "Fluorescence intesity", "setting": "serum of Colon Ca. patient #69, 1:100 dilution", "value": 0}, {"measurement": "Fluorescence intesity", "setting": "serum of Colon Ca. patient #70, 1:100 dilution", "value": 0}, {"measurement": "Fluorescence intesity", "setting": "serum of Colon Ca. patient #71, 1:100 dilution", "value": 26}, {"measurement": "Fluorescence intesity", "setting": "serum of Gastric Ca. patient #56, 1:100 dilution", "value": 2}, {"measurement": "Fluorescence intesity", "setting": "serum of Gastric Ca. patient #57, 1:100 dilution", "value": 0}, {"measurement": "Fluorescence intesity", "setting": "serum of Gastric Ca. patient #58, 1:100 dilution", "value": 0}, {"measurement": "Fluorescence intesity", "setting": "serum of Gastric Ca. patient #59, 1:100 dilution", "value": 15}, {"measurement": "Fluorescence intesity", "setting": "serum of Gastric Ca. patient #60, 1:100 dilution", "value": 1}, {"measurement": "Fluorescence intesity", "setting": "serum of Gastric Ca. patient #61, 1:100 dilution", "value": 8}, {"measurement": "Fluorescence intesity", "setting": "serum of Gastric Ca. patient #62, 1:100 dilution", "value": 0}, {"measurement": "Fluorescence intesity", "setting": "serum of Gastric Ca. patient #63, 1:100 dilution", "value": 0}, {"measurement": "Fluorescence intesity", "setting": "serum of Gastric Ca. patient #64, 1:100 dilution", "value": 0}, {"measurement": "Fluorescence intesity", "setting": "serum of Gastric Ca. patient #65, 1:100 dilution", "value": 0}, {"measurement": "Fluorescence intesity", "setting": "serum of Healthy Donor #1, 1:100 dilution", "value": 0}, {"measurement": "Fluorescence intesity", "setting": "serum of Healthy Donor #2, 1:100 dilution", "value": 35}, {"measurement": "Fluorescence intesity", "setting": "serum of Healthy Donor #3, 1:100 dilution", "value": 0}, {"measurement": "Fluorescence intesity", "setting": "serum of Healthy Donor #4, 1:100 dilution", "value": 0}, {"measurement": "Fluorescence intesity", "setting": "serum of Healthy Donor #5, 1:100 dilution", "value": 0}, {"measurement": "Fluorescence intesity", "setting": "serum of Healthy Donor #6, 1:100 dilution", "value": 0}, {"measurement": "Fluorescence intesity", "setting": "serum of Healthy Donor #7, 1:100 dilution", "value": 0}, {"measurement": "Fluorescence intesity", "setting": "serum of Healthy Donor #8, 1:100 dilution", "value": 361}, {"measurement": "Fluorescence intesity", "setting": "serum of Healthy Donor #9, 1:100 dilution", "value": 39}, {"measurement": "Fluorescence intesity", "setting": "serum of Healthy Donor #10, 1:100 dilution", "value": 0}, {"measurement": "Fluorescence intesity", "setting": "serum of Pancreas Ca. patient #46, 1:100 dilution", "value": 0}, {"measurement": "Fluorescence intesity", "setting": "serum of Pancreas Ca. patient #47, 1:100 dilution", "value": 6}, {"measurement": "Fluorescence intesity", "setting": "serum of Pancreas Ca. patient #48, 1:100 dilution", "value": 369}, {"measurement": "Fluorescence intesity", "setting": "serum of Pancreas Ca. patient #49, 1:100 dilution", "value": 0}, {"measurement": "Fluorescence intesity", "setting": "serum of Pancreas Ca. patient #50, 1:100 dilution", "value": 0}, {"measurement": "Fluorescence intesity", "setting": "serum of Pancreas Ca. patient #51, 1:100 dilution", "value": 0}, {"measurement": "Fluorescence intesity", "setting": "serum of Pancreas Ca. patient #52, 1:100 dilution", "value": 100}, {"measurement": "Fluorescence intesity", "setting": "serum of Pancreas Ca. patient #53, 1:100 dilution", "value": 0}, {"measurement": "Fluorescence intesity", "setting": "serum of Pancreas Ca. patient #54, 1:100 dilution", "value": 0}, {"measurement": "Fluorescence intesity", "setting": "serum of Pancreas Ca. patient #55, 1:100 dilution", "value": 0}, {"measurement": "Fluorescence intesity", "setting": "serum of Uterine cervical Ca. patient #1, 1:100 dilution", "value": 11}, {"measurement": "Fluorescence intesity", "setting": "serum of Uterine cervical Ca. patient #2, 1:100 dilution", "value": 0}, {"measurement": "Fluorescence intesity", "setting": "serum of Uterine cervical Ca. patient #3, 1:100 dilution", "value": 0}, {"measurement": "Fluorescence intesity", "setting": "serum of Uterine cervical Ca. patient #4, 1:100 dilution", "value": 0}, {"measurement": "Fluorescence intesity", "setting": "serum of Uterine cervical Ca. patient #5, 1:100 dilution", "value": 0}, {"measurement": "Fluorescence intesity", "setting": "serum of Uterine cervical Ca. patient #6, 1:100 dilution", "value": 1226}, {"measurement": "Fluorescence intesity", "setting": "serum of Uterine cervical Ca. patient #7, 1:100 dilution", "value": 26}, {"measurement": "Fluorescence intesity", "setting": "serum of Uterine cervical Ca. patient #8, 1:100 dilution", "value": 26}, {"measurement": "Fluorescence intesity", "setting": "serum of Uterine cervical Ca. patient #9, 1:100 dilution", "value": 58}, {"measurement": "Fluorescence intesity", "setting": "serum of Uterine cervical Ca. patient #10, 1:100 dilution", "value": 14}, {"measurement": "Fluorescence intesity", "setting": "serum of Uterine cervical Ca. patient #11, 1:100 dilution", "value": 33}, {"measurement": "Fluorescence intesity", "setting": "serum of Uterine cervical Ca. patient #12, 1:100 dilution", "value": 33}, {"measurement": "Fluorescence intesity", "setting": "serum of Uterine cervical Ca. patient #13, 1:100 dilution", "value": 397}, {"measurement": "Fluorescence intesity", "setting": "serum of Uterine cervical Ca. patient #14, 1:100 dilution", "value": 26}, {"measurement": "Fluorescence intesity", "setting": "serum of Uterine cervical Ca. patient #15, 1:100 dilution", "value": 136}, {"measurement": "Fluorescence intesity", "setting": "serum of Uterine cervical Ca. patient #16, 1:100 dilution", "value": 145}, {"measurement": "Fluorescence intesity", "setting": "serum of Uterine cervical Ca. patient #17, 1:100 dilution", "value": 72}, {"measurement": "Fluorescence intesity", "setting": "serum of Uterine cervical Ca. patient #18, 1:100 dilution", "value": 71}, {"measurement": "Fluorescence intesity", "setting": "serum of Uterine cervical Ca. patient #19, 1:100 dilution", "value": 92}, {"measurement": "Fluorescence intesity", "setting": "serum of Uterine cervical Ca. patient #20, 1:100 dilution", "value": 85}, {"measurement": "Fluorescence intesity", "setting": "serum of Uterine cervical Ca. patient #21, 1:100 dilution", "value": 28}, {"measurement": "Fluorescence intesity", "setting": "serum of Uterine cervical Ca. patient #22, 1:100 dilution", "value": 28}, {"measurement": "Fluorescence intesity", "setting": "serum of Uterine cervical Ca. patient #23, 1:100 dilution", "value": 82}, {"measurement": "Fluorescence intesity", "setting": "serum of Uterine cervical Ca. patient #24, 1:100 dilution", "value": 2650}, {"measurement": "Fluorescence intesity", "setting": "serum of Uterine cervical Ca. patient #25, 1:100 dilution", "value": 17}, {"measurement": "Fluorescence intesity", "setting": "serum of Uterine cervical Ca. patient #26, 1:100 dilution", "value": 166}, {"measurement": "Fluorescence intesity", "setting": "serum of Uterine cervical Ca. patient #27, 1:100 dilution", "value": 33}, {"measurement": "Fluorescence intesity", "setting": "serum of Uterine cervical Ca. patient #28, 1:100 dilution", "value": 139}, {"measurement": "Fluorescence intesity", "setting": "serum of Uterine cervical Ca. patient #29, 1:100 dilution", "value": 21}, {"measurement": "Fluorescence intesity", "setting": "serum of Uterine cervical Ca. patient #30, 1:100 dilution", "value": 50}, {"measurement": "Fluorescence intesity", "setting": "serum of Uterine cervical Ca. patient #31, 1:100 dilution", "value": 107}, {"measurement": "Fluorescence intesity", "setting": "serum of Uterine cervical Ca. patient #32, 1:100 dilution", "value": 18}, {"measurement": "Fluorescence intesity", "setting": "serum of Uterine cervical Ca. patient #33, 1:100 dilution", "value": 191}, {"measurement": "Fluorescence intesity", "setting": "serum of Uterine cervical Ca. patient #34, 1:100 dilution", "value": 17}, {"measurement": "Fluorescence intesity", "setting": "serum of Uterine cervical Ca. patient #35, 1:100 dilution", "value": 21}]}
